# Measured values taken from patent US11207312B2, “Metallo-beta-lactamase inhibitors and methods of use thereof” (priority 2017, dated 2021).
# Columns and labels:
# MB5890 (OprD+, efflux-) = experiment: microbe, parasite or virus in culture; type: cell-based, Pseudomonas aeruginosa; details: MB5890, OprD+, efflux−
# From the text: (§1) The strain background is Pseudomonas aeruginosa PAO1. A wild-type (M135919) and an isogenic strain in which multiple efflux pumps have been disrupted genetically were used. The MBL IMP-1, obtained from a clinical isolate was introduced into the strain pair by the following process:
# (§2) The plasmid DNA was transformed into parental MB5919 (oprD+, efflux+, inducible AmpC) and MB5890 (oprD+, efflux−, inducible AmpC) isogenic strains by electroporation.
# (§3) Minimum inhibitory concentrations of sentinel antibiotics were performed to quality control the new strains.
# MB5919 (OprD+, efflux+) = experiment: microbe, parasite or virus in culture; type: cell-based, Pseudomonas aeruginosa; details: MB5919, OprD+, efflux+
# From the text: as §1, §2, §3
# [1] = tested on: MB9798 (efflux+ MB5919 Trans IMP1 plasmid); experiment: microbe, parasite or virus in culture; type: cell-based, Pseudomonas aeruginosa; details: MB9798, OprD+, efflux+, MB5919 Trans IMP1 plasmid (CL 5673)
# From the text: as §1, §2, §3
# [2] = tested on: MB9799 (efflux- MB5890 Trans IMP1 plasmid); experiment: microbe, parasite or virus in culture; type: cell-based, Pseudomonas aeruginosa; details: MB9799, OprD+, efflux−, MB5890 Trans IMP1 plasmid (CL 5673)
# From the text: as §1, §2, §3
# [3] = tested on: MB9861 (Efflux+ MB5919 Trans pFlp-Vim1 plasmid); experiment: microbe, parasite or virus in culture; type: cell-based, Pseudomonas aeruginosa; details: MB9861, OprD+, Efflux+, MB5919 Trans pFlp-Vim1 plasmid
# [4] = tested on: MB9862 (efflux- MB5890 trans pFlp-Vim1); experiment: microbe, parasite or virus in culture; type: cell-based, Pseudomonas aeruginosa; details: MB9862, OprD+, efflux−, MB5890 trans pFlp-Vim1
# [5] = tested on: efflux+ MB5919 Trans pFlp-Vim2 plasmid; experiment: microbe, parasite or virus in culture; type: cell-based, Pseudomonas aeruginosa; details: OprD+, efflux+, MB5919 Trans pFlp-Vim2 plasmid
# [6] = tested on: efflux- MB5890 Trans pFlp-Vim2 plasmid; experiment: microbe, parasite or virus in culture; type: cell-based, Pseudomonas aeruginosa; details: OprD+, efflux−, MB5890 Trans pFlp-Vim2 plasmid
# NDM-1 = NDM-1 (Klebsiella pneumoniae, UniProt C7C422); experiment: biochemical; type: biochemical; details: CCF2-FA fluorescence assay, 2 hours at 25° C.
# Summary of the method: (§4)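 In 100 mM phosphate pH 7 containing Tween-20 and ZnSO4, NDM-1 (1 pM), IMP-1 (2 pM) or VIM-1 (30 pM) hydrolysed 1.25 μM CCF2-FA over 2 hours at 25° C with inhibitor present. Readout was 405/460 nm fluorescence.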
# IMP-1 = IMP-1 (Serratia marcescens, UniProt P52699); experiment: biochemical; details: CCF2-FA fluorescence assay, 2 hours at 25° C.; read-out: IMP1 IC50
# Summary of the method: as §4
# VIM-1 = VIM-1 (Pseudomonas aeruginosa (strain ATCC 15692 / DSM 22644 / CIP 104116 / JCM 14847 / LMG 12228 / 1C / PRS 101 / PAO1), UniProt A0A0F7KYQ8); experiment: biochemical; details: CCF2-FA fluorescence assay, 2 hours at 25° C.; read-out: VIM1 IC50
# Summary of the method: as §4
# VIM-2 = VIM-2 (Escherichia coli, UniProt Q5U7L7); experiment: biochemical; details: CCF2-FA fluorescence assay; read-out: VIM2 IC50
# [7] = tested on: Escherichia coli expressing NDM-1 (CLB30016); type: cell-based; details: with imipenem 1 μg/ml; 95% inhibition of bacterial growth
# Summary of the method: (§5)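 Each strain, diluted 1:100 from saline suspension into 1.1× CAMHB, was combined with imipenem held at 1 μg/ml and graded inhibitor. Growth after 22–24 h at 35 °C was measured by absorbance, and the lowest concentration achieving 95% inhibition defined MITC95.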
# [8] = tested on: Klebsiella pneumoniae expressing VIM-1 (IHMA599644); type: cell-based; details: with imipenem 1 μg/ml; 95% inhibition of bacterial growth
# Summary of the method: as §5
# [9] = tested on: Serratia marcescens expressing IMP-1 (CL5741); type: cell-based; details: with imipenem 1 μg/ml; 95% inhibition of bacterial growth
# Summary of the method: as §5
# [10] = tested on: P. aeruginosa MB9798 (efflux+, IMP-1 plasmid); details: for MB9798 MITC95 P. aeruginosa uM Efflux WT: efflux + (MB9798) strain, imipenem at 2 μg/mL, in the presence of a class A, C, D serine β-lactamase inhibitor closely related to relebactam; for Efflux ratio: fold difference between efflux+ (MB9798) and efflux− (MB9799) strains
# Summary of the method: (§6)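 PAO1-derived isogenic pair (oprD+, inducible AmpC), efflux+ MB5919 or efflux− MB5890 parent, carrying an electroporated IMP-1 plasmid from a clinical isolate. Microbroth MIC with fixed imipenem and/or ceftazidime (usually CLSI breakpoint) plus fixed class A/C inhibitor; MBL inhibitor serially titrated, concentration restoring susceptibility recorded.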
# [11] = tested on: P. aeruginosa MB9799 (efflux-, IMP-1 plasmid); type: cell-based, Pseudomonas aeruginosa; details: efflux − (MB9799) strain; imipenem at 2 μg/mL; in the presence of a class A, C, D serine β-lactamase inhibitor closely related to relebactam
# Summary of the method: as §6
# Chain of IMP-1 (P52699 whole entry, looked up, species assumed): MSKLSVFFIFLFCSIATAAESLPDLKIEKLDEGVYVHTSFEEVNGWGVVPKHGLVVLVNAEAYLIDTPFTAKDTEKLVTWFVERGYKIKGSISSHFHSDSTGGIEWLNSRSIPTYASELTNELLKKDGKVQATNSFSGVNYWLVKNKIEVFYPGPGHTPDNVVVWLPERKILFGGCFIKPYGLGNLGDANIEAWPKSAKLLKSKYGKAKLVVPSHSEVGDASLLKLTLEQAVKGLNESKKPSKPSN
# Chain of NDM-1 (C7C422 whole entry, looked up, species assumed): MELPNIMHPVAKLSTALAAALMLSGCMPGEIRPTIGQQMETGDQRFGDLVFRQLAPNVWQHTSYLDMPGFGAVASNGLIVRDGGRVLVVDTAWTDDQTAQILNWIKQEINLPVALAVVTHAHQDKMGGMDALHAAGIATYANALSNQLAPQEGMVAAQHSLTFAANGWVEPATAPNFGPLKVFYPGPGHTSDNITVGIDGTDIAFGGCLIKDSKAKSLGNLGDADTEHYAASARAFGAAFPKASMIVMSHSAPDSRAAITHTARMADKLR
Compound,"MIC (MB5890 (OprD+, efflux-))","MIC (MB5919 (OprD+, efflux+))",MIC [1],MIC [2],MIC [3],MIC [4],MIC [5],MIC [6],IC50 (NDM-1),IC50 (IMP-1),IC50 (VIM-1),IC50 (VIM-2),CLB30016 E. coli MITC95 NDM [7],IHMA599644 K. pneumoniae MITC95 VIM [8],CL5741 S. marcescens MITC95 IMP [9],MB9798 MITC95 P. aeruginosa uM Efflux WT [10],Efflux ratio [10],MB9799 MITC95 P. aeruginosa uM Efflux Mutant [11]
"CC(C)(O/N=C(\C(=O)N[C@@H]1C(=O)N2C(C(=O)[O-])=C(C[n+]3ccccc3)CS[C@H]12)c1csc(N)n1)C(=O)O [CAZ, ceftazidime]",0.5 µg/mL,1 µg/mL,256 µg/mL,256 µg/mL,>256 µg/mL,>256 µg/mL,128 µg/mL,64 µg/mL,–,–,–,–,–,–,–,–,–,–
"CCN1CCN(C(=O)N[C@@H](C(=O)N[C@@H]2C(=O)N3[C@@H]2SC(C)(C)[C@@H]3C(=O)O)c2ccccc2)C(=O)C1=O [Pipercillin, piperacillin]",1 µg/mL,2 µg/mL,4 µg/mL,4 µg/mL,>256 µg/mL,128 µg/mL,>256 µg/mL,128 µg/mL,–,–,–,–,–,–,–,–,–,–
"C[C@@H](O)[C@H]1C(=O)N2C(C(=O)O)=C(SCCN=CN)C[C@H]12 [Imipenem, imipenem]",2 µg/mL,4 µg/mL,64 µg/mL,32 µg/mL,>64 µg/mL,64 µg/mL,>64 µg/mL,32 µg/mL,–,–,–,–,–,–,–,–,–,–
"C[C@@H](O)[C@H]1C(=O)N2C(C(=O)O)=C(S[C@@H]3CN[C@H](C(=O)N(C)C)C3)[C@H](C)[C@H]12 [Meropenem, meropenem]",0.5 µg/mL,2 µg/mL,>64 µg/mL,64 µg/mL,>64 µg/mL,64 µg/mL,>64 µg/mL,32 µg/mL,–,–,–,–,–,–,–,–,–,–
"NC[C@@H](O)CNS(=O)(=O)c1ccc(N2CC[C@@H](CN)C2)c(-c2nn[nH]n2)c1S(N)(=O)=O [Example 121, N1-((R)-3-amino-2-hydroxypropyl)-4-((S)-3-(aminomethyl)pyrrolidin-1-yl)-3-(2H-tetrazol-5-yl)benzene-1,2-disulfonamide]",–,–,–,–,–,–,–,–,58.7 nM,66.8 nM,4.54 nM,30.4 nM,1.56 µM,0.78 µM,1.56 µM,6.25 µM,2.00,3.13 µM
"CN(CCO)CCN(C)c1ccc(S(=O)(=O)NC[C@H](O)CN)c(S(N)(=O)=O)c1-c1nn[nH]n1 [Example 136, (R)—N1-(3-amino-2-hydroxypropyl)-4-((2-((2-hydroxyethyl)(methyl)amino)ethyl)(methyl)amino)-3-(2H-tetrazol-5-yl)benzene-1,2-disulfonamide]",–,–,–,–,–,–,–,–,200 nM,200 nM,14.2 nM,27.4 nM,3.13 µM,1.56 µM,12.50 µM,50.00 µM,4.00,12.50 µM
"NS(=O)(=O)c1c(S(=O)(=O)N[C@@H]2CCNC2)ccc(N2CC(N3CCOCC3)C2)c1-c1nnn[nH]1 [Example 111, 4-(3-morpholin-4-ylazetidin-1-yl)-N1-[(3R)-pyrrolidin-3-yl]-3-(1H-tetrazol-5-yl)benzene-1,2-disulfonamide]",–,–,–,–,–,–,–,–,4.56 nM,4.16 nM,1.24 nM,8.65 nM,0.78 µM,3.13 µM,1.56 µM,12.50 µM,8.00,1.56 µM
"NC[C@@H](O)CNS(=O)(=O)c1ccc(N2CCN(CCCO)CC2)c(-c2nnn[nH]2)c1S(N)(=O)=O [Example 40, (R)-N1-(3-amino-2-hydroxypropyl)-4-(4-(3-hydroxypropyl)piperazin-1-yl)-3-(1H-tetrazol-5-yl)benzene-1,2-disulfonamide]",–,–,–,–,–,–,–,–,3.07 nM,3.56 nM,5.87 nM,7.36 nM,0.05 µM,0.78 µM,0.10 µM,1.56 µM,2.00,0.78 µM
"C[C@H](CN)NS(=O)(=O)c1ccc(N2CCC(CO)CC2)c(-c2nnn[nH]2)c1S(N)(=O)=O [Example 46, (R)-N1-(1-aminopropan-2-yl)-4-(4-(hydroxymethyl)piperidin-1-yl)-3-(1H-tetrazol-5-yl)benzene-1,2-disulfonamide]",–,–,–,–,–,–,–,–,0.06 nM,0.12 nM,0.08 nM,0.32 nM,3.13 µM,6.25 µM,1.56 µM,1.56 µM,1.00,1.56 µM
"CC1(C)CN(c2ccc(S(=O)(=O)NC[C@H](O)CN)c(S(N)(=O)=O)c2-c2nn[nH]n2)CCN1CCO [Example 173, (R)-N1-(3-amino-2-hydroxypropyl)-4-(4-(2-hydroxyethyl)-3,3-dimethylpiperazin-1-yl)-3-(2H-tetrazol-5-yl)benzene-1,2-disulfonamide]",–,–,–,–,–,–,–,–,19.8 nM,10.5 nM,13.7 nM,114 nM,1.56 µM,6.25 µM,3.13 µM,6.25 µM,4.00,1.56 µM
